Data published in patent US9630947B2, “Therapeutic compounds and related methods of use” (OTSUKA PHARMACEUTICAL CO., LTD., priority 2009, dated 2017).

Biological target: T1, purified STEP46 enzyme (Homo sapiens, UniProt P54829)
T1 sequence (P54829 1-565): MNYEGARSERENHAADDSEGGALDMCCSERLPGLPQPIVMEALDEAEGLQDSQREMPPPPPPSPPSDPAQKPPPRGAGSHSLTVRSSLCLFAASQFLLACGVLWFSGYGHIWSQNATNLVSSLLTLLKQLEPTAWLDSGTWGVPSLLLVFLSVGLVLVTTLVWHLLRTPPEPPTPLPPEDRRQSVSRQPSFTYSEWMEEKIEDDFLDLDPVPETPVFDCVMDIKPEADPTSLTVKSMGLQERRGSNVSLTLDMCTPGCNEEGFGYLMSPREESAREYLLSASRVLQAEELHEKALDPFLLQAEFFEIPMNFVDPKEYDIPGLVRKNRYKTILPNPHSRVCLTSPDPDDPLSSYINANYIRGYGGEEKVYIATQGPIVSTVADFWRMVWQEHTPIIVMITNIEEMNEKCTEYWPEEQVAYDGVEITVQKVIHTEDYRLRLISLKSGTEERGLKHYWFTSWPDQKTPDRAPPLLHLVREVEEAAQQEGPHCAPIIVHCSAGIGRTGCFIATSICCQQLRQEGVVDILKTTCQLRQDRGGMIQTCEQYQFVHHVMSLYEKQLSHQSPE
Experiment: STEP46 biochemical assay (DiFMUP fluorescence phosphatase assay)
Conditions: DiFMUP 10 μM, read-out: STEP IC50
Procedure, shortened: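 Compounds preincubated 30 min at room temperature with purified STEP46 (1 ng/well) in 50 mM Hepes, 1 mM DTT, 0.02% Brij35, then 10 μM DiFMUP (final) added for 90 min at 27 °C; 2% DMSO, fluorescence at 360/460 nm. IC50 from four-parameter fit of % inhibition; activators reported as negative % inhibition at 25, 50 and 100 uM.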

Row | SMILES | IC50
1 | COc1ccc2nc(-c3cccnc3)nc(Nc3ccc4ccsc4c3)c2c1 [Compound 309] | 1 to 10 µM
2 | COc1ccc2nc(-c3cccnc3)nc(Nc3nc(-c4cccc(F)c4F)cs3)c2c1 [Compound 452] | < 1 µM
3 | CNc1nc(-c2cccnc2)nc2c(C)c(-c3ccc(C#N)cc3)ccc12 [Compound 1452] | < 1 µM
4 | CNc1nc(-c2cccnc2)nc2c(C)c(-c3cc(F)ccc3F)ccc12 [Compound 1450] | 1 to 10 µM
5 | COc1ccc2nc(-c3ccnnc3)nc(Nc3ccc(Cl)c(Cl)c3)c2c1 [Compound 1184] | 1 to 10 µM
6 | CNc1nc(-c2cccnc2)nc2cc(-c3cc(F)ccc3F)c(C)cc12 [Compound 1406] | 1 to 10 µM
7 | COc1ccc2nc(-c3ccnnc3)nc(Nc3cccc(C#N)c3)c2c1 [Compound 1187] | < 1 µM
8 | Fc1ccc(Nc2nc(-c3cncnc3)nc3ccccc23)cc1Cl [Compound 1230] | 1 to 10 µM
9 | O=c1ccc2ccc(Nc3nc(-c4cccnc4)nc4ccc(-c5cccnc5)cc34)cc2[nH]1 [Compound 352] | 1 to 10 µM
10 | CNc1nc(-c2cccnc2)nc2cc(-c3ccc(C#N)cc3)c(C)cc12 [Compound 1410] | 1 to 10 µM
11 | COc1ccc2nc(-c3cnccn3)nc(Nc3ccc(F)c(F)c3)c2c1 [Compound 1192] | 1 to 10 µM
12 | COc1ccc(Cl)c(Nc2nc(-c3cccnc3)nc3ccc(OC)cc23)c1 [Compound 932] | 1 to 10 µM
13 | CNc1nc(-c2cccnc2)nc2ccc(-c3csc4ccccc34)cc12 [Compound 1339] | 1 to 10 µM
14 | COc1ccc2nc(-c3cccnc3)nc(Nc3ccc4c(c3)CCC4)c2c1 [Compound 306] | > 10 µM
15 | Fc1ccc(Nc2nc(-c3cccnc3)nc3ccc(-c4ccccc4Cl)cc23)cc1Cl [Compound 636] | > 10 µM
16 | FC(F)(F)Oc1cccc(Nc2nc(-c3ccnnc3)nc3ccccc23)c1 [Compound 1182] | 1 to 10 µM
17 | COc1ccc2c(Nc3ccc(F)c(Cl)c3)nc(-c3cnccn3)nc2c1 [Compound 1148] | 1 to 10 µM
18 | Fc1ccc(Nc2nc(-c3cnccn3)nc3cc(Cl)ccc23)cc1F [Compound 1142] | 1 to 10 µM
19 | Clc1ccc2c(Nc3ccc(Cl)c(Cl)c3)nc(-c3cnccn3)nc2c1 [Compound 1140] | < 1 µM
20 | FC1(F)Oc2ccc(Nc3nc(-c4cncnc4)nc4ccccc34)cc2O1 [Compound 1173] | > 10 µM
21 | Fc1ccc(F)c(-c2ccc3c(Nc4ccc(F)c(Cl)c4)nc(-c4cccnc4)nc3c2)c1 [Compound 676] | < 1 µM
22 | CNc1nc(-c2cccnc2)nc2ccc(-c3cccc4occc34)cc12 [Compound 1370] | 1 to 10 µM
23 | Cc1cccc2c(Nc3cc(Cl)cc(Cl)c3)nc(-c3cnccn3)nc12 [Compound 1180] | 1 to 10 µM
24 | CN(C)c1ccc2nc(-c3ccnnc3)nc(Nc3ccccc3C(N)=O)c2c1 [Compound 1151] | 1 to 10 µM
25 | CNc1c(-c2cccc(C#N)c2)ccc2nc(-c3cccnc3)nc(C)c12 [Compound 1423] | > 10 µM

Row | SMILES | IC50
26 | CN(C)c1cccc(-c2ccc3nc(-c4cccnc4)nc(Nc4ccc(F)c(Cl)c4)c3c2)c1 [Compound 643] | < 1 µM
27 | Fc1ccc(Nc2nc(-c3cccnc3)nc3ccc(-c4cccc(OC(F)(F)F)c4)cc23)cc1Cl [Compound 658] | 1 to 10 µM
28 | Clc1cc(Cl)cc(Nc2nc(-c3cnccn3)nc3cc(Cl)ccc23)c1 [Compound 1146] | 1 to 10 µM
29 | CNc1nc(-c2cccnc2)nc2cc(-c3cccc(F)c3F)ccc12 [Compound 1371] | 1 to 10 µM
30 | Fc1ccc(-c2ccc3c(Nc4ccc(F)c(Cl)c4)nc(-c4cccnc4)nc3c2)cc1 [Compound 689] | < 1 µM
31 | COc1ccc2nc(-c3cccnc3)nc(Nc3nc(-c4ccccc4F)cs3)c2c1 [Compound 439] | < 1 µM
32 | COc1ccc2nc(-c3cccnc3)nc(Nc3ccc4ccn(C)c4c3)c2c1 [Compound 303] | 1 to 10 µM
33 | Fc1ccc(Nc2nc(-c3cnccn3)nc3ccccc23)cc1F [Compound 1220] | > 10 µM
34 | CNc1nc(-c2cccnc2)nc2cc(-c3cccc(C#N)c3)ccc12 [Compound 1364] | 1 to 10 µM
35 | Fc1ccc(Nc2nc(-c3cccnc3)nc3ccc(-c4cccc(Cl)c4)cc23)cc1Cl [Compound 629] | 1 to 10 µM
36 | COc1cccc(-c2ccc3c(Nc4ccc(F)c(Cl)c4)nc(-c4cccnc4)nc3c2)c1 [Compound 681] | 1 to 10 µM
37 | FC(F)Oc1cc(Cl)cc(Nc2nc(-c3ccnnc3)nc3ccccc23)c1 [Compound 1212] | 1 to 10 µM
38 | N#Cc1cccc(-c2ccc3nc(-c4cccnc4)nc(Nc4ccc(F)c(Cl)c4)c3c2)c1 [Compound 633] | 1 to 10 µM
39 | COc1ccc2c(Nc3ccc(F)c(Cl)c3)nc(-c3ccnnc3)nc2c1 [Compound 1155] | 1 to 10 µM
40 | COc1ccc2nc(-c3cccnc3)nc(Nc3ccc4oc(=O)[nH]c4c3)c2c1 [Compound 317] | 1 to 10 µM
41 | CCOc1ccc(-c2ccc3nc(-c4cccnc4)nc(Nc4ccc(F)c(Cl)c4)c3c2)cn1 [Compound 661] | < 1 µM
42 | COc1ccc2nc(-c3cccnc3)nc(Nc3ccc4scnc4c3)c2c1 [Compound 320] | 1 to 10 µM
43 | CN(C)c1nc(-c2cccnc2)nc2ccc(-c3ccccc3C#N)cc12 [Compound 1337] | 1 to 10 µM
44 | COc1ccc2nc(-c3cccnc3)nc(Nc3nc(-c4cc(F)cc(F)c4)cs3)c2c1 [Compound 457] | 1 to 10 µM
45 | COc1ccc2nc(-c3cccnc3)nc(Nc3cc(-c4ccc(Cl)cc4)nn3C)c2c1 [Compound 403] | 1 to 10 µM
46 | CNc1nc(-c2cccnc2)nc2cc(-c3cccc(F)c3)c(C)cc12 [Compound 1402] | 1 to 10 µM
47 | FC(F)Oc1cccc(Nc2nc(-c3cncnc3)nc3ccccc23)c1 [Compound 1211] | > 10 µM
48 | CNc1nc(-c2cccnc2)nc2c(C)c(-c3ccc(F)c(F)c3)ccc12 [Compound 1445] | 1 to 10 µM
49 | CNc1nc(-c2cccnc2)nc2cc(-c3ccc(F)c(F)c3)c(C)cc12 [Compound 1407] | 1 to 10 µM
50 | COc1ccc2nc(-c3cccnc3)nc(Nc3nc(-c4cccc(C#N)c4)cs3)c2c1 [Compound 453] | < 1 µM

Row | SMILES | IC50
51 | COc1ccc2nc(-c3cccnc3)nc(Nc3ccc4c(c3)OC(F)(F)C(F)(F)O4)c2c1 [Compound 322] | > 10 µM
52 | O=[N+]([O-])c1cccc(-c2ccc3nc(-c4cccnc4)nc(Nc4ccc(F)c(Cl)c4)c3c2)c1 [Compound 635] | < 1 µM
53 | CN(C)c1nc(-c2cccnc2)nc2ccc(-c3ccc([N+](=O)[O-])cc3)cc12 [Compound 1336] | 1 to 10 µM
54 | COc1ccc2nc(-c3cccnc3)nc(Nc3ccccc3C(=O)NC(C)c3ccc(C(F)(F)F)cc3)c2c1 (stereo not drawn) [Compound 889] | 1 to 10 µM
55 | Fc1ccc(Nc2nc(-c3ccnnc3)nc3cc(Cl)ccc23)cc1Cl [Compound 1201] | 1 to 10 µM
56 | COc1ccc2nc(-c3cccnc3)nc(Nc3nc(-c4ccccc4)c(C)s3)c2c1 [Compound 456] | < 1 µM
57 | FC(F)Oc1cccc(Nc2nc(-c3cnccn3)nc3ccccc23)c1 [Compound 1214] | 1 to 10 µM
58 | COc1ccc2nc(-c3cccnc3)nc(Nc3nc(-c4ccc(Cl)cc4)cs3)c2c1 [Compound 399] | < 1 µM
59 | CCOc1ccc2nc(-c3ccnnc3)nc(Nc3cccc(OC(F)F)c3)c2c1 [Compound 1167] | 1 to 10 µM
60 | CNc1nc(-c2cccnc2)nc2cc(-c3cccc(C(C)=O)c3)ccc12 [Compound 1350] | 1 to 10 µM
61 | CCOc1ccc2nc(-c3cccnc3)nc(Nc3nc(-c4ccccc4)cs3)c2c1 [Compound 473] | 1 to 10 µM
62 | Fc1ccc(Nc2nc(-c3ccnnc3)nc3ccccc23)cc1Cl [Compound 1216] | < 1 µM
63 | NC(=O)c1ccccc1Nc1nc(-c2cccnc2)nc2cc(-c3cc(F)cc(F)c3)ccc12 [Compound 707] | < 1 µM
64 | COc1ccc2nc(-c3cccnc3)nc(Nc3nc(-c4ccc(C)cc4)cs3)c2c1 [Compound 429] | < 1 µM
65 | CNc1nc(-c2cccnc2)nc2cc(-c3cccc(OC)c3)c(C)cc12 [Compound 1412] | 1 to 10 µM
66 | COc1ccccc1-c1ccc2c(Nc3ccc(F)c(Cl)c3)nc(-c3cccnc3)nc2c1 [Compound 682] | 1 to 10 µM
67 | COc1ccc2nc(-c3cccnc3)nc(Nc3ccc4c(c3)COC4)c2c1 [Compound 962] | < 1 µM
68 | Fc1ccc(Nc2nc(-c3cccnc3)nc3ccc(-c4ccc(Cl)cc4)cc23)cc1Cl [Compound 630] | 1 to 10 µM
69 | CCOc1ccc2nc(-c3cccnc3)nc(Nc3ccc4ccc(=O)[nH]c4c3)c2c1 [Compound 335] | < 1 µM
70 | COc1ccc2nc(-c3cccnc3)nc(Nc3nc(-c4ccccc4OC(F)(F)F)cs3)c2c1 [Compound 454] | 1 to 10 µM
71 | N#Cc1cccc(Nc2nc(-c3cnccn3)nc3ccccc23)c1 [Compound 1221] | > 10 µM
72 | COc1ccc2nc(-c3cnccn3)nc(Nc3cc(Cl)cc(Cl)c3)c2c1 [Compound 1194] | < 1 µM
73 | COc1cccc(-c2ccc3nc(-c4cccnc4)nc(Oc4ccccc4C(N)=O)c3c2)c1 [Compound 393] | 1 to 10 µM
74 | Clc1cc(Cl)cc(Nc2nc(-c3ccnnc3)nc3ccccc23)c1 [Compound 1223] | < 1 µM
75 | CNc1nc(-c2cccnc2)nc2ccc(-c3ccc(C(C)=O)cc3OC)cc12 [Compound 1382] | < 1 µM
